Measured values reported in patent US9284321B2, “Piperazino[1,2-a]indol-1-ones and [1,4]diazepino[1,2-a]indol-1-one” (Hoffmann-La Roche Inc., priority 2012, dated 2016).

Assays:
[1] = system: human embryonic stem cell derived neural stem cells (NSCs); test: Neural Stem Cell Proliferation Assay (neurogenesis assay, ATP levels by CellTiterGlo); type: cell-based; settings: 96 h, compound concentration at which 150% activity of control (100%) is reached, NSC proliferation by ATP level after 4 days incubation, dose response 8 μM to 8 nM
How it was run: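 Read-out is CellTiterGlo ATP luminescence after 4-day culture (37 °C, 5% CO2) of dual-SMAD-derived human ESC NSCs, dosed 4 h post-seeding at 8 μM to 8 nM (11 points, 2-fold). EC150 marks the concentration reaching 150% of the media-only control (0.25% DMSO).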

Row | Structure (SMILES) | melting point [°C] | EC (150% of control) [1] [µM]
1 | Cc1cc(-c2cc(Cl)cc3c(C)c4n(c23)CCNC4=O)ccc1F [Example 134, 8-Chloro-6-(4-fluoro-3-methyl-phenyl)-10-methyl-3,4-dihydro-2H-pyrazino[1,2-a]indol-1-one] | 235.5 | 0.083
2 | Cc1ccc(-c2cc(Cl)cc3c(C)c4n(c23)CCNC4=O)cc1F [Example 105, 8-Chloro-6-(3-fluoro-4-methyl-phenyl)-10-methyl-3,4-dihydro-2H-pyrazino[1,2-a]indol-1-one] | 225 | 0.029
3 | Cc1c2n(c3c(-c4ccc(Cl)c(F)c4)cc(Cl)cc13)CCNC2=O [Example 98, 8-Chloro-6-(4-chloro-3-fluoro-phenyl)-10-methyl-3,4-dihydro-2H-pyrazino[1,2-a]indol-1-one] | 242.5 | 0.019
4 | O=C1NCCn2c1cc1cc(F)cc(-c3ccncc3)c12 [Example 21, 8-Fluoro-6-pyridin-4-yl-3,4-dihydro-2H-pyrazino[1,2-a]indol-1-one] | 323.5 | 0.036
5 | C[C@@H]1CNC(=O)c2cc3cc(F)cc(-c4ccncc4)c3n21 [Example 7, (R)-8-Fluoro-4-methyl-6-pyridin-4-yl-3,4-dihydro-2H-pyrazino[1,2-a]indol-1-one] | 294.5 | 0.4
6 | O=C1NCCn2c1cc1c(F)c(F)cc(-c3ccc(F)cc3)c12 [Example 32, 8,9-Difluoro-6-(4-fluoro-phenyl)-3,4-dihydro-2H-pyrazino[1,2-a]indol-1-one] | 283.5 | 2.6
7 | Cc1c2n(c3c(-c4ccc(F)nc4)cc(Cl)cc13)CCNC2=O [Example 114, 8-Chloro-6-(6-fluoro-pyridin-3-yl)-10-methyl-3,4-dihydro-2H-pyrazino[1,2-a]indol-1-one] | 270 | 0.04
8 | Cc1c2n(c3c(-c4ccc(C#N)cc4)cc(Cl)cc13)CCNC2=O [Example 104, 4-(8-Chloro-10-methyl-1-oxo-1,2,3,4-tetrahydro-pyrazino[1,2-a]indol-6-yl)-benzonitrile] | 290 | 0.015
9 | Cc1c2n(c3c(-c4ccc(C(F)(F)F)cc4)cc(F)cc13)CCNC2=O [Example 82, 8-Fluoro-10-methyl-6-(4-trifluoromethyl-phenyl)-3,4-dihydro-2H-pyrazino[1,2-a]indol-1-one] | 269.5 | 0.036
10 | COc1ccc(-c2cc(Cl)cc3c(C)c4n(c23)CCCNC4=O)cc1 [Example 71, 9-Chloro-7-(4-methoxy-phenyl)-11-methyl-2,3,4,5-tetrahydro-[1,4]diazepino[1,2-a]indol-1-one] | 240.5 | 0.021

The next lines start with results.

Row | melting point [°C] | Structure (SMILES) | EC (150% of control) [1] [µM]
11 | 162 | Cc1c2n(c3c(-c4ccc(OC(F)(F)F)cc4)cc(F)cc13)CCNC2=O [Example 149, 8-Fluoro-10-methyl-6-(4-trifluoromethoxy-phenyl)-3,4-dihydro-2H-pyrazino[1,2-a]indol-1-one] | 0.016
12 | 292 | N#Cc1cc(-c2ccc(F)cc2F)c2c(c1)cc1n2CCNC1=O [Example 173, 6-(2,4-Difluoro-phenyl)-1-oxo-1,2,3,4-tetrahydro-pyrazino[1,2-a]indole-8-carbonitrile] | 0.01
13 | 278 | Cc1c2n(c3c(-c4ccc(Cl)c(C(F)(F)F)c4)cc(C#N)cc13)CCNC2=O [Example 295, 6-[4-Chloro-3-(trifluoromethyl)phenyl]-10-methyl-1-oxo-3,4-dihydro-2H-pyrazino[1,2-a]indole-8-carbonitrile] | 0.3
14 | 256 | Cc1c2n(c3c(-c4ccnc(F)c4)cc(C#N)cc13)CCNC2=O [Example 168, 6-(2-Fluoro-pyridin-4-yl)-10-methyl-1-oxo-1,2,3,4-tetrahydro-pyrazino[1,2-a]indole-8-carbonitrile] | 0.064
15 | 268 | Cc1c2n(c3c(-c4nccs4)cc(F)cc13)CCNC2=O [Example 171, 8-Fluoro-10-methyl-6-thiazol-2-yl-3,4-dihydro-2H-pyrazino[1,2-a]indol-1-one] | 0.36
16 | 240.5 | Cc1ccc(-c2cc(C#N)cc3cc4n(c23)CCCNC4=O)cc1 [Example 287, 7-(4-Methylphenyl)-1-oxo-2,3,4,5-tetrahydro-[1,4]diazepino[1,2-a]indole-9-carbonitrile] | 0.22
17 | 257 | N#Cc1ccc(-c2cc(C#N)cc3cc4n(c23)CCCNC4=O)cc1 [Example 237, 7-(4-Cyanophenyl)-1-oxo-2,3,4,5-tetrahydro-[1,4]diazepino[1,2-a]indole-9-carbonitrile] | 0.22
18 | 292 | Cc1c2n(c3c(-c4ccc(C(C)(C)C)cc4)cc(C#N)cc13)CCNC2=O [Example 280, 6-(4-tert-Butylphenyl)-10-methyl-1-oxo-3,4-dihydro-2H-pyrazino[1,2-a]indole-8-carbonitrile] | 0.14
19 | 223.5 | Cc1cc(-c2cc(C#N)cc3cc4n(c23)CCCNC4=O)ccc1F [Example 235, 7-(4-Fluoro-3-methylphenyl)-1-oxo-2,3,4,5-tetrahydro-[1,4]diazepino[1,2-a]indole-9-carbonitrile] | 0.77
20 | 270 | Cc1c2n(c3c(-c4ccc(Cl)cc4F)cc(C#N)cc13)CCNC2=O [Example 180, 6-(4-Chloro-2-fluoro-phenyl)-10-methyl-1-oxo-1,2,3,4-tetrahydro-pyrazino[1,2-a]indole-8-carbonitrile] | 0.008
21 | 230 | N#Cc1cc(-c2ccc(F)cc2)c2c(c1)cc1n2CCCNC1=O [Example 215, 7-(4-Fluorophenyl)-1-oxo-2,3,4,5-tetrahydro-[1,4]diazepino[1,2-a]indole-9-carbonitrile] | 0.09
22 | 305.5 | CS(=O)(=O)c1ccc(-c2cc(C#N)cc3cc4n(c23)CCCNC4=O)cc1 [Example 256, 7-(4-Methylsulfonylphenyl)-1-oxo-2,3,4,5-tetrahydro-[1,4]diazepino[1,2-a]indole-9-carbonitrile] | 1.42
23 | 245.5 | N#Cc1cc(-c2ccc(Cl)cc2)c2c(c1)cc1n2CCCNC1=O [Example 214, 7-(4-Chlorophenyl)-1-oxo-2,3,4,5-tetrahydro-[1,4]diazepino[1,2-a]indole-9-carbonitrile] | 0.14
24 | 265 | Cc1c2n(c3c(-c4ccc(CO)cc4)cc(C#N)cc13)CCNC2=O [Example 277, 6-[4-(Hydroxymethyl)phenyl]-10-methyl-1-oxo-3,4-dihydro-2H-pyrazino[1,2-a]indole-8-carbonitrile] | 0.025
25 | 278 | Cc1c2n(c3c(-c4ccc(F)c(F)c4)cc(C#N)cc13)CCCNC2=O [Example 196, 7-(3,4-Difluorophenyl)-11-methyl-1-oxo-2,3,4,5-tetrahydro-[1,4]diazepino[1,2-a]indole-9-carbonitrile] | 0.086
